From patent US20110112158A1, “BENZISOXAZOLE ANALOGS AS GLYCOGEN SYNTHASE ACTIVATORS” (priority 2009, published 2011)

System: glycogen synthase
Experiment: Glycogen Synthase (GS) Assay
Type: biochemical
Conditions: for EC50: compound concentration needed to give 50% maximum activation; for GS SC200: compound concentration needed to stimulate 200% of the enzyme activity
Method: Twelve μl per well of substrate solution containing glycogen (4.32 mg/ml), 2.67 mM UDP-glucose, 21.6 mM phospho(enol)pyruvate and 2.7 mM NADH in 30 mM glycylglycine, pH 7.3 buffer was added into a polystyrene 384-well assay plate (BD Biosciences).
Compound solutions (8 μl/well) at various concentrations (0-300 μM) were added to the assay plate (columns 5-24). Compound solution contains 30 mM glycylglycine, pH 7.3, 40 mM KCl, 20 mM MgCl2, 9.2% DMSO, with (columns 15-24) or without (columns 5-14) 20 mM glucose 6-phosphate.
Enzyme solution (12 μl/well) containing glycogen synthase (16.88 μg/ml), pyruvate kinase (0.27 mg/ml), lactate dehydrogenase (0.27 mg/ml) in 50 mM Tris-HCl, pH 8.0, 27 mM DTT and bovine serum albumin (BSA, 0.2 mg/ml) was added to the assay plate (columns 3-24). As a blank control, enzyme solution without glycogen synthase was added into the top half wells of columns 1-2. To the bottom half wells of columns 1-2 were added a known activator, glucose 6-phosphate (at final concentration 5 mM) in addition to the enzyme solution. The reaction mixture was incubated at room temperature. The assay plate was then read for absorbance at 340 nm on an Envision reader every 3 minutes up to a total of 15 minutes.
The enzyme activity (with or without compound) was calculated by the reaction rate and represented by the optical density change (μOD) per minute. Percent stimulation of glycogen synthase activity by a compound at various concentrations was calculated by the following formula: […]
wherein Rs is the reaction rate of the enzyme in the presence of compound and Rt is the reaction rate of the enzyme in the absence of compound.
SC200 is defined as the compound concentration that is needed to stimulate 200% of the enzyme activity. EC50 is defined as the compound concentration that is needed to give 50% maximum activation.

| Compound | EC50 [nM] | GS SC200 [µM] |
| --- | --- | --- |
| COc1cc(F)c(F)cc1-c1ccc(OCc2ccc3onc(OC(C(=O)O)c4ccccc4)c3c2)cc1 (stereo not shown) [Example 8, [5-(4′,5′-Difluoro-2′-methoxy-biphenyl-4-yloxymethyl)-benzo[d]isoxazol-3-yloxy]-phenyl-acetic acid] | 1760 | 0.723 |
| Cc1cc(F)c(F)cc1-c1ccc(OCc2cccc3c(O)noc23)cc1 [Example 13, 7-(4′,5′-Difluoro-2′-methyl-biphenyl-4-yloxymethyl)-benzo[d]isoxazol-3-ol] | 792 | 0.523 |
| COCCCN(CC(=O)O)c1noc2ccc(COc3ccc(-c4cc(F)c(F)cc4OC)cc3)cc12 [Example 15, [[5-(4′,5′-Difluoro-2′-methoxy-biphenyl-4-yloxymethyl)-benzo[d]isoxazol-3-yl]-(3-methoxy-propyl)-amino]-acetic acid] | 514 | 0.169 |
| Oc1noc2ccc(COc3ccc(-c4cc(F)c(F)cc4F)cc3)cc12 [Example 20, 5-(2′,4′,5′-Trifluoro-biphenyl-4-yloxymethyl)-benzo[d]isoxazol-3-ol] | 422 | 0.247 |
| CNc1noc2ccc(COc3ccc(-c4cc(F)c(F)cc4OC)cc3)cc12 [Example 2] | 1970 | 0.514 |
| COc1cc(F)c(F)cc1-c1ccc(OCc2ccc3onc(OC(C)(C)C(=O)O)c3c2)cc1 [Example 6, 2-[5-(4′,5′-Difluoro-2′-methoxy-biphenyl-4-yloxymethyl)-benzo[d]isoxazol-3-yloxy]-2-methyl-propionic acid] | 777 | 0.348 |
| CCN(CC(=O)O)c1noc2ccc(COc3ccc(-c4cc(F)c(F)cc4OC)cc3)cc12 [Example 16, {[5-(4′,5′-Difluoro-2′-methoxy-biphenyl-4-yloxymethyl)-benzo[d]isoxazol-3-yl]-ethyl-amino}-acetic acid] | 631 | 2.18 |
| COc1cc(F)c(F)cc1-c1ccc(OCc2ccc3onc(OC(C)C(=O)O)c3c2)cc1 (stereo not shown) [Example 7, 2-[5-(4′,5′-Difluoro-2′-methoxy-biphenyl-4-yloxymethyl)-benzo[d]isoxazol-3-yloxy]-propionic acid] | 662 | 0.218 |
| COc1cc(F)c(F)cc1-c1ccc(OCc2ccc3onc(OCCC(=O)O)c3c2)cc1 [Example 9, 3-[5-(4′,5′-Difluoro-2′-methoxy-biphenyl-4-yloxymethyl)-benzo[d]isoxazol-3-yloxy]-propionic acid] | 1700 | 0.61 |
| COc1cc(F)c(F)cc1-c1ccc(OCc2ccc3onc(O)c3c2)cc1 [Example 4, 5-(4′,5′-Difluoro-2′-methoxy-biphenyl-4-yloxymethyl)-benzo[d]isoxazol-3-ol] | 172 | 0.032 |
| COCCN(CC(=O)O)c1noc2ccc(COc3ccc(-c4cc(F)c(F)cc4OC)cc3)cc12 [Example 14, [[5-(4′,5′-Difluoro-2′-methoxy-biphenyl-4-yloxymethyl)-benzo[d]isoxazol-3-yl]-(2-methoxy-ethyl)-amino]-acetic acid] | 365 | 0.098 |
| COc1cc(F)c(F)cc1-c1ccc(OCc2cccc3c(N(C)CC(=O)O)noc23)cc1 [Example 19, {[7-(4′,5′-Difluoro-2′-methoxy-biphenyl-4-yloxymethyl)-benzo[d]isoxazol-3-yl]-methyl-amino}-acetic acid] | 4220 | 1.57 |
| COc1cc(F)c(F)cc1-c1ccc(OCc2ccc3onc(N(CC(=O)O)CC4CCOCC4)c3c2)cc1 [Example 18, [[5-(4′,5′-Difluoro-2′-methoxy-biphenyl-4-yloxymethyl)-benzo[d]isoxazol-3-yl]-(tetrahydro-pyran-4-ylmethyl)-amino]-acetic acid] | 713 | 0.249 |
| COc1cc(F)c(F)cc1-c1ccc(OCc2ccc3onc(N(C)CC(=O)O)c3c2)cc1 [Example 3] | 302 | 0.024 |
| Oc1noc2c(COc3ccc(-c4cc(F)c(F)cc4F)cc3)cccc12 [Example 10, 7-(2′,4′,5′-Trifluoro-biphenyl-4-yl-oxymethyl)-benzo[d]isoxazol-3-ol] | 836 | 0.148 |
| COc1cc(F)c(F)cc1-c1ccc(OCc2ccc3onc(N)c3c2)cc1 [Example 1, 5-(4′,5′-Difluoro-2′-methoxy-biphenyl-4-yloxymethyl)-benzo[d]isoxazol-3-ylamine] | 1490 | 0.688 |
| COc1cc(F)c(F)cc1-c1ccc(OCc2ccc3onc(N(CC(=O)O)CC4CC4)c3c2)cc1 [Example 17] | 1160 | 0.438 |
| Oc1noc2c(COc3ccc(-c4cc(F)c(F)cc4Cl)cc3)cccc12 [Example 12, 7-(2′-Chloro-4′,5′-difluoro-biphenyl-4-yloxymethyl)-benzo[d]isoxazol-3-ol] | 702 | 0.406 |
| COc1cc(F)c(F)cc1-c1ccc(OCc2cccc3c(O)noc23)cc1 [Example 11, 7-(4′,5′-Difluoro-2′-methoxy-biphenyl-4-yloxymethyl)-benzo[d] isoxazol-3-ol] | 158 | 0.014 |
| COc1cc(F)c(F)cc1-c1ccc(OCc2ccc3onc(OCC(=O)O)c3c2)cc1 [Example 5, [5-(4′,5′-Difluoro-2′-methoxy-biphenyl-4-yloxymethyl)-benzo[d]isoxazol-3-yloxy]-acetic acid] | 1350 | 0.492 |
